The results in this text go back to PMC11928584, “H105A peptide eye drops promote photoreceptor survival in murine and human models of retinal degeneration” (Communications Medicine, 2025).

The subject of test [1] is rod photoreceptor outer segments of RhoP23H/+ mice. Kind of test: OS thickness labelled by rhodopsin, RhoP23H/+ mice. The class given is in vivo, mouse. The note with it: Fig 6e. Here is the method:
Eyes from Rho^P23H/+ mice eyes were enucleated and fixed in Davidson’s fix (8% formaldehyde (Merck, cat. F8775), 32% ethanol (Carlo Erba, cat. 414608), 10% acetic acid (Merck, cat. 695092)) over-night. After embedding in paraffin, 14 μm sections were collected. For TUNEL, sections were treated with […] Citrate Buffer pH 6 (10 mM Tri-sodium citrate (Carlo Erba, cat. 368007)), 0.2 mM citric acid (Merck, cat: 251275) in microwave for 5 min, then labeling was performed for one h at 37 °C using the In Situ Cell Death Detection Kit (Merck, cat. 12156792910). Rod photoreceptors were labeled with anti-RHO 1D4 antibody followed by Alexa Fluor 568 anti-mouse secondary antibody. Cone photoreceptors were labeled with anti-Opsin Blue (Merck, cat. AB5407) and anti-Opsin Red/Green (Merck, cat. AB5405). GFP localization in control transduced retinas was identified with specific anti-GFP antibody and Alexa Fluor 488 anti-mouse secondary antibody. Microglial cell labeling was performed using anti-Iba1 antibody (Wako, cat. 019-19741). For nuclear staining, 0.1 μg/ml DAPI was used. Slides were mounted with Mowiol 4–88 (Merck) and images acquired with a Zeiss Axio Imager A2 fluorescence microscope. To count TUNEL positive cells the RETINA Analysis Tool kit for ImageJ was used[37].
Fig. 6 Effects of eye drops containing H105A peptide in the photoreceptors of Rho^P23H/+ mice. a Scheme of experimental design. Daily peptide eye drops (5 µl of 1 mg/ml peptide) were applied to mice starting at P14 until P19 when immunofluorescence of retinal cross sections was performed. The contralateral control eyes were treated with vehicle HBSS. RE and LE refer to the right and left eyes, respectively. b Immunostaining was performed with antibodies against BAX or BCL2 (green), and DAPI (blue). Histograms show quantification of immunofluorescence intensity for BAX and BCL2 markers. […] Each individual data point represents the average of five (n = 5) retinas ± SD, with statistical significance determined between H105A and vehicle by paired t-test (****p < 0.0001). […] Statistical significance between H105A and untreated is indicated by ∗p ≤ 0.05, and ∗∗p ≤ 0.01. […] Presented as average ± SD, with statistics performed using One-way ANOVA Šídák’s multiple comparisons test. ∗p ≤ 0.05

Test [2] relates to human iPSC-derived retinal organoids exposed to CSE. Kind of test: TUNEL staining of retinal organoid sections. Type of test: cell-based. To be noted: Figure 8f; CSE + peptide; individual values, n=5. On the procedure: Human iPSCs were differentiated into retinal organoids (ROs) following the protocol by Zhong et al.[41]. Briefly, on Day 0, hiPSC colonies were dissociated with dispase and grown in a suspension to form embryoid bodies, and slowly transitioned to neural induction media (DMEM/F12 (1:1), 1% N2 supplement (Invitrogen), 1 x minimum essential media-nonessential amino acids (NEAAs), 2 µg/ml heparin (Sigma)). On Day 7, EBs were seeded on Matrigel coated plates and maintained in neural induction media. On Day 16, the media was switched to the retinal differentiation medium (DMEM/F12 (3:1), 2% B27 (without vitamin A, Invitrogen), 1x NEAA and 1% antibiotic–antimycotic (Gibco)). Retinal domains were identified and lifted manually with tungsten needles between Day 21 and Day 26 under a phase contrast microscope. On day 30, the culture medium was transitioned to DMEM/F12 (3:1) with 2% B27, 1x NEAA, 1% antibiotic–antimycotic, 10% fetal bovine serum (FBS; Gibco), […] Taurine (Sigma), and 2 mM GlutaMAX (Invitrogen). Additionally, 1 µM retinoic acid supplement was introduced daily starting from day 63. On day 91, the medium was modified to DMEM/F12 (1:1) supplemented with 1% N2, 1 x NEAAs, 1% antibiotic–antimycotic, 10% FBS, […] Taurine and 2 mM GlutaMAX, and the concentration of retinoic acid supplementation was reduced to 0.5 µM for the remainder of the culture period. The use of hiPSCs in this study conforms to the University of Colorado Institutional Biosafety Committee standards. […]
D180 ROs were treated with each of the 5 experimental conditions, as described above (n = 5 for each condition), washed with PBS three times, and fixed with 4% paraformaldehyde for 10 min at room temperature. […] Fluorescence images were acquired with a Nikon C2 Confocal Microscope A1 (Minato City, Tokyo, Japan) and stitched together using Nikon Elements Software. Images were analysed with Fiji. The relative area of positive immunostaining was calculated as a percentage of total retinal area. […]

Several values for one entry are separate records, joined by “and”; a condition that tells them apart may be missing. Identical values can stand only once. Where a SMILES comes first, the peptide text is derived from it.

With `CC[C@H](C)[C@H](NC(=O)[C@H](CC(C)C)NC(=O)[C@H](CC(=O)O)NC(=O)[C@H](Cc1ccc(O)cc1)NC(=O)[C@H](Cc1ccc(O)cc1)NC(=O)[C@H](CC(C)C)NC(=O)[C@H](C)NC(=O)[C@H](CCCNC(=N)N)NC(=O)[C@H](C)NC(=O)[C@@H](NC(=O)[C@@H](NC(=O)[C@H](CO)NC(=O)[C@H](CCC(=O)O)NC(=O)[C@@H](NC(=O)[C@H](CCCNC(=N)N)NC(=O)[C@@H](N)CCC(N)=O)[C@@H](C)O)[C@@H](C)CC)[C@@H](C)CC)C(=O)N[C@@H](CO)C(=O)O` [H105A] (H-QRTESIIARALYYDLIS-OH), the Outer segments (OS) thickness in test [1] (replicate 1 of 9) was 14.6 µm; in test [1] (replicate 2 of 9), 11.1 µm; in test [1] (replicate 3 of 9) it was 16.1 µm; in test [1] (replicate 4 of 9), 15.5 µm; in test [1] (replicate 5 of 9), 14.5 µm; in test [1] (replicate 6 of 9), 14.6 µm. Besides, the Outer segments (OS) thickness in test [1] (replicate 7 of 9) was found to be 12.4 µm; in test [1] (replicate 8 of 9) it was 20.7 µm; in test [1] (replicate 9 of 9), 16.5 µm.
As to `CC[C@H](C)[C@H](NC(=O)[C@H](CC(C)C)NC(=O)[C@H](CC(=O)O)NC(=O)[C@H](Cc1ccc(O)cc1)NC(=O)[C@H](Cc1ccc(O)cc1)NC(=O)[C@H](CC(C)C)NC(=O)[C@H](C)NC(=O)[C@H](CCCNC(=N)N)NC(=O)[C@H](Cc1c[nH]cn1)NC(=O)[C@@H](NC(=O)[C@@H](NC(=O)[C@H](CO)NC(=O)[C@H](CCC(=O)O)NC(=O)[C@@H](NC(=O)[C@H](C)NC(=O)[C@@H](N)CCC(N)=O)[C@@H](C)O)[C@@H](C)CC)[C@@H](C)CC)C(=O)N[C@@H](CO)C(=O)O` [R99A] (H-QATESIIHRALYYDLIS-OH), the “Relative TUNEL(+) area” value in test [2] is 4.87 and 4.90 and 3.81 and 6.35 and 6.42.
